This passage reports IC50 results from US6110716A, “HIV integrase inhibitors” (Merck & Co., Inc., priority 1998, dated 2000).

Structures are written as SMILES.

Assay [1] addresses T1, HIV-1 integrase (Human immunodeficiency virus type 1 group M subtype B, UniProt P04585).
T1 construct: HIV long terminal repeat terminus by HIV-1 integrase
Put plainly: HIV Integrase Substrate Cleavage (trimming of the 3' end of HIV long terminal repeat terminus by HIV-1 integrase). The conditions noted are these: inhibition of HIV integrase substrate cleavage; inhibitor 0.75 to 100 μM. The format is biochemical. The protocol: HIV Integrase Substrate Cleavage
An assay for trimming of the 3' and of HIV long terminal repeat terminus by HIV-1 integrase was conducted according to LaFemina, R. L. et al., J. Virol 10, 5624 (1991), herein incorporated by reference for these purposes. To assay inhibition of HIV integrase substrate cleavage, the reaction was conducted with inhibitor having various concentrations in the range of 0.75 to 100 μM.

The target of assay [2] is HIV integrase (Human immunodeficiency virus type 1 group M subtype B, UniProt P04585). Put plainly: Strand Transfer Assay for HIV Integrase (microtiter assay for ligation of processed donor (HIV) DNA to unspecific, nicked host DNA). The format is biochemical. The conditions noted are these: inhibition of strand transfer by HIV integrase; inhibitor 0.75 to 100 μM. The protocol:
Strand Transfer Assay for HIV Integrase
A microtiter assay for ligation of processed donor (HIV) DNA to unspecific, nicked host DNA was conducted according to Hazuda, D. J. et al., Nucl. Acids, Res. 22, 1121 (1994), herein incorporated by reference for these purposes. To assay inhibition of such strand transfer by HIV integrase, the reaction was conducted with inhibition having various concentrations in the range of 0.75 to 100 μM. Representative results follow.

Turning to `CC1Oc2cc3c(-c4c(O)cc(O)c5c(O)c6c(cc45)OC(C)C(C)C6=O)c(O)cc(O)c3c(O)c2C(=O)C1C` (stereo not drawn) [Compound A], the IC50 in assay [1] stood at 2 µM; in assay [2], 12 µM.
The matching figures for `CC1Oc2cc3c(-c4c(O)cc(O)c5c(O)c6c(cc45)OC(C)C(C)C6=O)c(O)cc(O)c3c(O)c2OC(=O)C1C` (single isomer, unassigned) [Compound C]: 3 µM and 9 µM.
The matching figures for `Cc1oc2cc3c(-c4c(O)cc(O)c5c(O)c6c(cc45)O[C@@H](C)[C@@H](C)C6=O)c(O)cc(O)c3c(O)c2c(=O)c1C` (relative stereo) [Compound D]: 1 µM and 4 µM.
Molecule `COc1cc(OC)c2c(OC)c3c(cc2c1-c1c(OC)cc(OC)c2c(OC)c4c(cc12)OC(C)C(C)C4=O)OC(C)C(C)C3=O` (stereo not drawn) [Compound G] showed a 50% inhibitory concentration (IC50) in assay [1] of 60 µM.
The same measure, in the same setting: as for `COc1cc(O)c2c(OC)c3c(cc2c1-c1c(OC)cc(OC)c2c(OC)c4c(cc12)OC(C)C(C)C4=O)OC(C)C(C)C3=O` (stereo not drawn) [Compound F], the figure is 40 µM; as for `CC(=O)Oc1cc(OC(C)=O)c2c(OC(C)=O)c3c(cc2c1-c1c(OC(C)=O)cc(OC(C)=O)c2c(OC(C)=O)c4c(cc12)OC(C)C(C)C4=O)OC(C)C(C)C3=O` (stereo not drawn) [E], 50 µM.
